The results in this text go back to patent US11225475B2, “Substituted pyridines as inhibitors of histone deacetylase” (Alkermes, Inc., priority 2017, dated 2022).

Data set [1] deals with human erythroid (CFU-E, BFU-E) progenitors. The data set is described as follows: Erythroid CFU assay (human bone marrow clonogenic progenitors). The data set is classed as cell-based. The settings on record: for Erythroid % control remaining @ 10 uM dose: 14 days in culture. The method, then: (§1) Clonogenic progenitors of human erythroid (CFU-E, BFU-E), granulocyte-monocyte (CFU-GM) and multipotential (CFU-GEMM) lineages were assessed in a semi-solid methylcellulose-based media formulation containing rhIL-3 (10 ng/mL), rhGM-SCF (10 ng/mL), rhSCF (50 ng/mL) and Epo (3 U/mL).
(§2) Normal human bone marrow light density cells derived from normal bone marrow (NorCal Biologics, California) and qualified at ReachBio, were stored in the gaseous phase of liquid nitrogen (−152° C.) until required for the assay. On the day of the experiment, the cells were thawed rapidly, the contents of each vial was diluted in 10 mL of Iscove's modified Dulbecco's medium containing 10% fetal bovine serum (IMDM+10% FBS) and washed by centrifugation (approximately 1200 r.p.m. for 10 minutes, room temperature). The supernatant was discarded and the cell pellets resuspended in a known volume of IMDM+10% FBS. A cell count (3% glacial acetic acid) and viability assessment (trypan blue exclusion test) was performed for the bone marrow sample.
(§3) On the day of the experiment, the compounds were dissolved in DMSO to a stock concentration of 10 mM. Serial dilutions were prepared from the stock concentration to achieve concentrations of 2 and 0.4 mM. When added to the methylcellulose-based media at 1:1000 (v/v), the final test concentrations of 10, 2 and 0.4 μM were achieved. Additionally, 5-FU was evaluated at 1.0, 0.1 and 0.01 μg/mL.
(§4) Clonogenic progenitors of the human erythroid (CFU-E and BFU-E) and myeloid (CFU-GM) lineages were set up in the methylcellulose-based media formulations described above. All compounds were added to the medium to give the final desired concentrations ([…] 5-Fluorouracil (Sigma Aldrich) was used as a positive control for progenitor proliferation (inhibition of colony growth) and was introduced to the human bone marrow cultures at 1.0, 0.1, and 0.01 μg/mL. Solvent control cultures (containing no compound but 0.1% DMSO) as well as standard controls (containing no compound and no DMSO) were also initiated.
(§5) Human myeloid and erythroid progenitor assays were initiated at 2.0×10^4 cells per culture. Following 14 days in culture, myeloid and erythroid colonies were assessed microscopically and scored by trained personnel. The colonies were divided into the following categories based on size and morphology: CFU-E, BFU-E, CFU-GM and CFU-GEMM.
(§6) The mean±one standard deviation of three replicate cultures was calculated for progenitors of each category (CFU-E, BFU-E, etc.). Two-tailed t-tests were performed to assess if there was a difference in the number of colonies generated between solvent control and treated cultures. Due to the potential subjectivity of colony enumeration, a p value of less than 0.01 is deemed significant. To calculate the concentration of 50% inhibition of colony growth (IC50) for each compound, a dose response curve was generated plotting the log of the compound concentration versus the percentage of control colony growth using XLfit software (IDBS). The concentration of 50% inhibition of colony growth (IC50) was calculated based on the sigmoid curve fit using Dose-Response, One-Site Model formula: y=A+[(B−A)/(1+((C/x)^D))], where A=the initial value (baseline response), B=maximum response, C=center (drug concentration that provokes a response halfway between A and B) and D=slope of the curve at midpoint. Further, plots and additional dose response curves were generated using GraphPad Prism 7.0.
(§7) Erythroid (CFU-E and BFU-E), myeloid (CFU-GM) and multi-potential (CFU-GEMM) colony enumeration was performed by trained personnel. The distribution of colony types as well as general colony and cellular morphology was analyzed. For statistical analysis colony numbers in compound treated cultures were compared to the solvent control cultures. […] The experiment was used to evaluate the potential effect of test compounds on human erythroid and myeloid progenitor proliferation in a methylcellulose-based medium. […]

Data set [2] has as its system human myeloid (CFU-GM) progenitors. The data set is described as follows: Myeloid CFU assay (human bone marrow clonogenic progenitors). The format is cell-based. The settings on record: 14 days in culture. The procedure: as §1, §2, §3, §4, §5, §6, §7
Data set [3] deals with T1, HDAC2 (Homo sapiens (Human), UniProt Q92769). The data set is described as follows: HDAC2 enzymatic inhibition assay in SH-SY5Y cell lysate (HDAC-Glo 2). The data set is classed as cell-based. The following applies: SH-SY5Y cells, five hours incubation. The method, then:
SH-SY5Y cells (Sigma) were cultured in Eagle's Modified Essential Medium supplemented with 10% fetal bovine serum and pen/strep. Twenty-four hours prior to compound dosing 20 uL of cells were plated in white 384 well plates at a density of 1,500 cells/well. Compounds were serially diluted in neat DMSO and then diluted 1:100 v/v into media without FBS and mixed. Media was removed from the plated cells and the diluted compounds in serum free media (1% v/v final DMSO) were added and incubated at 37.0 for five hours. Ten uL of HDAC-Glo 2 reagent with 0.1% Triton X-100 was then added, the plate was mixed and allowed to develop at room temperature for 100 minutes. Plates were then read with a Spectramax LMax luminometer employing a 0.4s integration time. Dose response curves were constructed with normalized data where CI-994 at 100 uM was defined as 100% inhibition and DMSO alone as 0% inhibition.

For data set [4], the target named is T1, HDAC2. The data set is described as follows: HDAC2 enzymatic assay (deacetylation of peptide substrate, Caliper LabChip). The format is biochemical. The settings on record: reaction time 17 hours, 25° C. The method, then: (§8) The following describes an assay protocol for measuring the deacetylation of a peptide substrate by the enzymes HDAC2 or HDAC1. Enzyme, substrate, and cofactors are combined in a well of a microtiter plate and incubated for […] at 25° C. At the end of the incubation, the reaction is quenched by the addition of an SDS-containing buffer. Substrate and product are separated and quantified electrophoretically using the microfluidic-based LabChip 3000 Drug Discovery System from Caliper Life Sciences. The peptide substrate used in this assay is FAM-TSRHK(AC)KL-CONH2 (FAM is carboxyfluorescein). Peptide should be >98% purity by Capillary Electrophoresis. • 1. To a well of a 384-well plate, add 5 μL of 2× enzyme buffer. Using Labcyte Echo 550, add 100 nl compound. Enzyme and compound may be pre-incubated at this time if desired. • 2. Add 5 μL of 2× substrate buffer. • 3. Incubate plate at 25° C. for 17 hours. • 4. Terminate reaction by adding 40 μL of 1.55× stop buffer. • 5. Create job on a Caliper LabChip® 3000 Drug Discovery System. • 6. Load the plate and start electrophoresis using blue laser (480 nm) for excitation and green CCD (520 nm) for detection (CCD2). Reaction time=17 hours; Reaction temperature=25° C.
(§9) 1% DMSO (from compound) 1 μM FAM-TSRHK(AC)KL-CONH2 5 nM HDAC Enzyme (specific activity may vary from lot-to-lot, and enzyme concentration may need to be adjusted to yield ˜10-20% conversion of substrate to product).
(§10) Substrate and product peptides present in each sample are separated electrophoretically using the LabChip 3000 capillary electrophoresis instrument. As substrate and product peptides are separated, two peaks of fluorescence are observed. Change in the relative fluorescence intensity of the substrate and product peaks is the parameter measured, reflecting enzyme activity. Capillary electrophoregramms (RDA acquisition files) are analyzed using HTS Well Analyzer software (Caliper Life Sciences). The enzyme activity in each sample is determined as the product to sum ratio (PSR):P/(S+P), where P is the peak height of the product peptide and S is the peak height of the substrate peptide. For each compound, enzyme activity is measured at various concentrations (12 concentrations of compound spaced by 3× dilution intervals). Negative control samples (0%-inhibition in the absence of inhibitor) and positive control samples (100%-inhibition, in the presence of 20 mM EDTA) are assembled in replicates of four and are used to calculate %-inhibition values for each compound at each concentration. Percent inhibition (Pinh) is determined using following equation: Pinh=(PSR0%−PSRinh)/(PSR0%−PSR100%)*100, where PSRinh is the product sum ratio in the presence of inhibitor, PSR0% is the average product sum ration in the absence of inhibitor and PSR100% is the average product sum ratio in 100%-inhibition control samples.
(§11) The IC50 values of inhibitors are determined by fitting the inhibition curves (Pinh versus inhibitor concentration) by 4 parameter sigmoidal dose-response model using XLfit 4 software (MDS).

The target in a further data set is HDAC1 (Homo sapiens (Human), UniProt Q13547). The data set can be described thus: HDAC1 enzymatic assay (deacetylation of peptide substrate, Caliper LabChip). The data set is classed as biochemical. The settings on record: reaction time 17 hours, 25° C. The procedure: as §8, §9, §10, §11
HDAC1, sequence (Q13547 whole entry): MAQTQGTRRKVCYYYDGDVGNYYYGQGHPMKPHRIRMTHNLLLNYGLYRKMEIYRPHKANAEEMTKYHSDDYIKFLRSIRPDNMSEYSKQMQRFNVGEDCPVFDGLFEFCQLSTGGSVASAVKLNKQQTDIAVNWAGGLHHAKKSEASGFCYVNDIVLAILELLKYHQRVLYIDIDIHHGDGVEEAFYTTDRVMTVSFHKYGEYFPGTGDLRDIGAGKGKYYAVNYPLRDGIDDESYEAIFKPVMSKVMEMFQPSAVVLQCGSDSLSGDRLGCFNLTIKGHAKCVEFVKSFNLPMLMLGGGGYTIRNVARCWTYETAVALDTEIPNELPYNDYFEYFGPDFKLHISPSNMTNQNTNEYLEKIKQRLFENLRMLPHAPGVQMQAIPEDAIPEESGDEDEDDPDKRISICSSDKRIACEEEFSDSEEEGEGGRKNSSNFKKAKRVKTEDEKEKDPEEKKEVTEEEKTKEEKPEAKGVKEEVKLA

Bounds are passed on as bounds.

T1 sequence (Q92769 whole entry): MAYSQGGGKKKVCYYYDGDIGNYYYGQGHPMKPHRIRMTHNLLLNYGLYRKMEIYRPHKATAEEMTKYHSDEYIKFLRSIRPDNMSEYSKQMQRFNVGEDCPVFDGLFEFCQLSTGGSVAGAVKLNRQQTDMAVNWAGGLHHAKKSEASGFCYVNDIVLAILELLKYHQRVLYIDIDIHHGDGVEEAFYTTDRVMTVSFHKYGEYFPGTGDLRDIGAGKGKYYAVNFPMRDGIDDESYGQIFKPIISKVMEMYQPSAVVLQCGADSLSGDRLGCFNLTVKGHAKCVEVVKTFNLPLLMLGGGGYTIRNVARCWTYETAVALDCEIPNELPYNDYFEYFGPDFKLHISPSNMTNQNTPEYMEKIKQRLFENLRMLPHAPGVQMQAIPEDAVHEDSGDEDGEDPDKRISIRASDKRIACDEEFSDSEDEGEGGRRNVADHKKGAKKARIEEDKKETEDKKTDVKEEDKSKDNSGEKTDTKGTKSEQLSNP

As for `CCn1cc2c(n1)CN(C(=O)Nc1nc(-c3ccc(F)cc3)ccc1N)C2` [Comparator 1, reference compound], in data set [1], the “Erythroid % control remaining @ 10 uM dose” value came to 22%. Also, the “Myeloid % control remaining @ 10 uM dose” value in data set [2] stood at 34%.
In the same order, the values of `Cc1nc2c(s1)CN(C(=O)Nc1nc(-c3ccc(F)cc3)ccc1N)C2` [Comparator 2, reference compound] are 45% and 103%.
`COCCn1cc2c(n1)CN(C(=O)Nc1nc(-c3cccs3)ccc1N)C2` [Comparator 3, reference compound]: the “Erythroid % control remaining @ 10 uM dose” value in data set [1] is 18%. The “Myeloid % control remaining @ 10 uM dose” value in data set [2] was found to be 9%.
In the same order, the values of `COCCn1cc2c(n1)CN(C(=O)Nc1nc(-c3ccc(F)cc3)ccc1N)C2` [Comparator 4, reference compound] are 28% and 39%.
On the same counts, the results for `Cc1cc2c(cn1)CN(C(=O)Nc1nc(-c3ccc(F)cc3)ccc1N)C2` [Comparator 5, reference compound] are 25.7% and 66.1%.
On to `COCc1cc2c(cn1)CN(C(=O)Nc1nc(-c3ccc(F)cc3)ccc1N)C2` [Comparator 6, reference compound], for which, in data set [1], the “Erythroid % control remaining @ 10 uM dose” value was 22.9%. Further, in data set [2], the “Myeloid % control remaining @ 10 uM dose” value is reported as 58.9%.
On the same counts, the results for `Nc1ccc(-c2ccc(F)cc2)nc1NC(=O)N1Cc2cc(CN3CC(F)C3)cnc2C1` [Comparator 7, reference compound] are 35% and 82%.
In the same order, the values of `COCc1ccc2c(n1)CN(C(=O)Nc1nc(-c3ccc(F)cc3)ccc1N)C2` [Comparator 8, reference compound] are 33% and 70%.
For the compound `CCc1ncc2c(n1)CN(C(=O)Nc1nc(-c3ccc(F)cc3)ccc1N)C2` [Comparator 9, reference compound], the “Erythroid % control remaining @ 10 uM dose” value in data set [1] is 60%. In data set [2], the “Myeloid % control remaining @ 10 uM dose” value was found to be 79%.
Regarding `Cc1cc2c(cn1)CN(C(=O)Nc1nc(-c3ccc(F)cc3F)ccc1N)C2` [Compound 1], the “Erythroid % control remaining @ 10 uM dose” value in data set [1] came out at 53%. Besides, the values for the IC50 at HDAC2 [3], at HDAC2 [4] and against HDAC1 were 100 to 1000 nM, 100 to 500 nM and 100 to 500 nM, respectively. Also, in data set [2], the “Myeloid % control remaining @ 10 uM dose” value is listed as 100%.
In the case of `COCc1ccc2c(n1)CN(C(=O)Nc1nc(-c3ccc(F)cc3F)ccc1N)C2` [Compound 2], the “Erythroid % control remaining @ 10 uM dose” value in data set [1] was 62%. Further, the IC50 (as a rule, the point on the concentration scale where inhibition reaches its midpoint) is 1000 to 1500 nM against HDAC2 [3], 500 to 5000 nM on HDAC2 [4] and 100 to 500 nM against HDAC1. Also, in data set [2], the “Myeloid % control remaining @ 10 uM dose” value is recorded as 92%.
On the same counts, the results for `Cc1nc2c(s1)CN(C(=O)Nc1nc(-c3ccc(F)cc3F)ccc1N)C2` [Compound 3] are 89%, 100 to 1000 nM, 500 to 5000 nM, 100 to 500 nM and 109%.
As to `Nc1ccc(-c2ccc(F)cc2F)nc1NC(=O)N1Cc2cnc(CN3CC(F)C3)cc2C1` [Compound 4], in data set [1], the “Erythroid % control remaining @ 10 uM dose” value was 62%. The values for the IC50 against HDAC2 [3], against HDAC2 [4] and on HDAC1 were 1000 to 1500 nM, 500 to 5000 nM and 100 to 500 nM, respectively. Moreover, in data set [2], the “Myeloid % control remaining @ 10 uM dose” value is 102%.
As to `O=c1[nH]cc(F)c(=O)[nH]1` [Compound 5-FU, 5-Fluorouracil, reference compound], the “inhibitory effects as positive control for toxicity” value in data set [1] (erythroid and myeloid progenitor assays, 1.0, 0.1 and 0.01 μg/mL) was “exactly as expected”.
As to `Cc1ncc2c(n1)CN(C(=O)Nc1nc(-c3ccc(F)cc3F)ccc1N)C2` [Compound 5], the “Erythroid % control remaining @ 10 uM dose” value in data set [1] was determined as 69%. Moreover, the IC50 against HDAC2 [3] lay in the range of 1000 to 1500 nM; against HDAC2 [4] it was 500 to 5000 nM; at HDAC1 it was 500 to 5000 nM. The “Myeloid % control remaining @ 10 uM dose” value in data set [2] is on record as 82%.
Turning to `COCCn1cc2c(n1)CN(C(=O)Nc1nc(-c3ccc(Cl)s3)ccc1N)C2` [Compound 6], the “Erythroid % control remaining @ 10 uM dose” value in data set [1] was 69%. Besides, the values for the IC50 at HDAC2 [3], against HDAC2 [4] and at HDAC1 were above 1500 nM, 500 to 5000 nM and 500 to 5000 nM, respectively. The “Myeloid % control remaining @ 10 uM dose” value in data set [2] came out at 82%.
As to `CCc1ncc2c(n1)CN(C(=O)Nc1nc(-c3ccc(F)cc3F)ccc1N)C2` [Compound 7], the “Erythroid % control remaining @ 10 uM dose” value in data set [1] is on record as 69%. Further, the results for the IC50 at HDAC2 [3], against HDAC2 [4] and at HDAC1 were 100 to 1000 nM, 500 to 5000 nM and 100 to 500 nM, respectively. Moreover, the “Myeloid % control remaining @ 10 uM dose” value in data set [2] was 105%.
